Consider 48 molecules from ChEMBL document CHEMBL3244128, “Aromatic esters of nonquaternary carbon-4 piperidinols as analgesics” (J Med Chem, 1978).

SMILES strings stand for the structures. Active and inactive are the calls of the source. The rule behind the calls is not given here.

The subject of data set [1] is Mus musculus. Description: Analgesic activity in sc dosed mouse by hot-plate method. It is filed as functional.
The subject of data set [2] is Mus musculus. Description: Analgesic activity in mouse at 50 mg/kg, sc by hot-plate method. Type of data set: functional, organism-based. Also noted: dose 50 mg/kg. For orientation: Thermal pain tests record how soon the animal reacts.
For data set [3], the system named is Rhesus monkey. In words: Toxicity in nonwithdrawn monkey assessed as nausea at 4 mg/kg. Type of data set: organism-based, Macaca mulatta. Also noted: dose 4 mg/kg. As to conditions: in vivo.
The test system of data set [4] is Rhesus monkey. Description: Toxicity in nonwithdrawn monkey assessed as nausea and piloerection at 8 mg/kg. It is filed as organism-based, Macaca mulatta. Further details: dose 8 mg/kg. Conditions: in vivo.
The subject of data set [5] is Mus musculus. Description: Toxicity in mouse at 1.56 to 25 mg/kg, sc. It is filed as organism-based. Also noted: dose 1.56-25 mg/kg, route subcutaneous. Conditions: in vivo.
In data set [6] the test system is Mus musculus. Description: Toxicity in mouse at 5 to 40 mg/kg, sc. It is filed as organism-based. Also noted: dose 5-40 mg/kg, route subcutaneous. As to conditions: in vivo.
Data set [7] relates to Rhesus monkey. Description: Toxicity in nonwithdrawn monkey assessed as precipitation of abstinence sign at 8 mg/kg. It is filed as organism-based, Macaca mulatta. Further details: dose 8 mg/kg. As to conditions: in vivo.
Data set [8] deals with Rhesus monkey. Description: Toxicity in monkey assessed as morphine-like physical dependence liability at 2 to 4 mg/kg. Type of data set: organism-based, Macaca mulatta. Also noted: dose 2-4 mg/kg. As to conditions: in vivo.
Data set [9] has as its system Mus musculus. Description: Toxicity in mouse at 54.5 mg/kg, sc. Type of data set: organism-based. Further details: dose 54.5 mg/kg, route subcutaneous. Conditions: in vivo.
Data set [10] has as its system Rhesus monkey. Description: Toxicity in nonwithdrawn monkey assessed as convulsion at 16 mg/kg up to 5 mins. Type of data set: organism-based, Macaca mulatta. Conditions: in vivo. Further details: dose 16 mg/kg.
The test system of data set [11] is Mus musculus. In words: Toxicity in mouse at 1.25 to 20 mg/kg, sc. Type of data set: organism-based. Also noted: dose 1.25-20 mg/kg, route subcutaneous. Conditions: in vivo.
In data set [12] the test system is Rhesus monkey. In words: Toxicity in nonwithdrawn monkey assessed as retching, vomiting and preconvulsive appearance at 16 mg/kg up to 5 mins. Also noted: dose 16 mg/kg. It is filed as organism-based, Macaca mulatta. Conditions: in vivo.
Data set [13] relates to Mus musculus. In words: Analgesic activity in sc dosed mouse by Nilsen method. Type of data set: functional.
The subject of data set [14] is Mus musculus. Description: Analgesic activity in mouse at 20 mg/kg, sc by hot-plate method. Type of data set: functional, organism-based. Also noted: dose 20 mg/kg.
Data set [15] deals with Opioid receptor (Rattus norvegicus) (UniProt P33533+P34975+P33535). In words: Displacement of [3H]dihydromorphine from opiate receptor in rat brain homogenates. Type of data set: tissue-based. For orientation: Loss of bound radioactivity is the signal in a displacement assay; it reports binding, not function.
Chain of Opioid receptor (Rattus norvegicus) (P33533 whole entry, looked up): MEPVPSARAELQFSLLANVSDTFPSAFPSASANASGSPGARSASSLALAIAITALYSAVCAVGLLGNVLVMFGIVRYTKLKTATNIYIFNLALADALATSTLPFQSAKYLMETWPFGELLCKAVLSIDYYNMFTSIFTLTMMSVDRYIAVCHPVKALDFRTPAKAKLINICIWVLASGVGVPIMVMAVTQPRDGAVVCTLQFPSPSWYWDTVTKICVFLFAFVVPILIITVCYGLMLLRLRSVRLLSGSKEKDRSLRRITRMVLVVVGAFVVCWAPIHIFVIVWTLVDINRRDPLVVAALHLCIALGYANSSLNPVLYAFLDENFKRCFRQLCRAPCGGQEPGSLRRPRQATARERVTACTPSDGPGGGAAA
Chain of Opioid receptor (Rattus norvegicus) (P33535 whole entry, looked up): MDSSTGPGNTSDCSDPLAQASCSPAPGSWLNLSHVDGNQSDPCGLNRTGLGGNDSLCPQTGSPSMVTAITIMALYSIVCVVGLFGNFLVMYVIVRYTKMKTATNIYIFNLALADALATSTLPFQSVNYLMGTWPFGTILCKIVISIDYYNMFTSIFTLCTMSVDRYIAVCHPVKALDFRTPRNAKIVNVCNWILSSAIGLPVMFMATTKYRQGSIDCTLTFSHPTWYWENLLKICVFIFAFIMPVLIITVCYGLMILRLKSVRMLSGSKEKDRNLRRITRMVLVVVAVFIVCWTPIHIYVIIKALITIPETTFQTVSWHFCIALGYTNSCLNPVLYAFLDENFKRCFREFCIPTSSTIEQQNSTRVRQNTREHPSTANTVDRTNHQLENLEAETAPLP
Chain of Opioid receptor (Rattus norvegicus) (P34975 whole entry, looked up): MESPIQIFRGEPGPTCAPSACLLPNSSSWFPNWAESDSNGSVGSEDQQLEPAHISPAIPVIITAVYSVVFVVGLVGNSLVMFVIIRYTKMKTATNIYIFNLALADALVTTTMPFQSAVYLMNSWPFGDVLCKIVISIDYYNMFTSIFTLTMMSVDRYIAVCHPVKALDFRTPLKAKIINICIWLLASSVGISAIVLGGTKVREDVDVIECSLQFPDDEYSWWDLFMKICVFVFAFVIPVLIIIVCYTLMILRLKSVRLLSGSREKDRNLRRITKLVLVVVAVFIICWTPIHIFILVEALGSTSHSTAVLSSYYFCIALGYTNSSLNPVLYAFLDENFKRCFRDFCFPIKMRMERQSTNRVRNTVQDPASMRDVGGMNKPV
The test system of data set [16] is Mus musculus. Description: Toxicity in mouse at 20 mg/kg, sc. Also noted: dose 20 mg/kg, route subcutaneous. Type of data set: organism-based. As to conditions: in vivo.
Data set [17] deals with Mus musculus. Description: Analgesic activity in mouse at 20 mg/kg, sc by Nilsen method. It is filed as functional, organism-based. Further details: dose 20 mg/kg.

`CN1CCC(OC(=O)C2c3ccccc3-c3ccccc32)CC1`: the ED50 entry in [1] was “inactive”.

As to `CN1CCC(OC(=O)c2cc(I)cc(I)c2I)CC1`, in [1], the ED50 entry is “inactive”.

Consider `Cc1cccc(C(=O)OC2CCN(C)CC2)c1`, for which the ED50 result in data set [1] was “inactive”.

As to `CCOC(=O)[C@H]1CN(C)CC[C@@H]1OC(=O)c1ccc(OC)c(OC)c1` (relative stereo), the 50% effective dose (ED50) in [1] amounted to 11.8 mg/kg.

Consider `CN1CCC(OC(=O)c2ccc(F)cc2)CC1`, for which the 50% effect level in [1] (ED50) was put at a dose of 11.5 mg/kg.

In [1], `CN1CCC(OC(=O)c2ccc(Cl)c(Cl)c2)CC1` yielded an ED50 of 27.1 mg/kg.

Take `CCC(=O)OC1CCN(C)CC1`: in [1], the ED50 was 20.2 mg/kg.

The molecule `COc1ccc(C(=O)OC2CCN(C)CC2)cc1` returned an ED50 in data set [1] of 10.5 mg/kg.

Take `CN1CCC(OC(=O)c2ccccc2CCc2ccccc2)CC1`: the ED50 entry in data set [2] was “Active”.

Regarding `CC(C(=O)OC1CCN(C)CC1)c1ccccc1` (stereo unspecified), the ED50 in data set [1] was 25.4 mg/kg.

Take `CN1CCC(OC(=O)Cc2ccccc2)CC1`: the ED50 result in data set [1] is “inactive”.

`Cc1ccccc1C(=O)OC1CCN(C)CC1` showed an ED50 in data set [1] of 8.9 mg/kg.

As to `Cc1cc(C)cc(C(=O)OC2CCN(C)CC2)c1`, in [1], the 50% effective dose (ED50) was 24.4 mg/kg.

With `COc1ccc(C(=O)OC2CCN(C)CC2)cc1OC`, the ED50 in data set [1] is 3.9 mg/kg; in [13], 13.1 mg/kg. In addition, the Activity result in data set [3] was “Toxic”; in data set [4], “Toxic”; in data set [5], “Non-toxic”; in [6], “Non-toxic”; in data set [7], “Non-toxic”; in data set [8], “Non-toxic”. In addition, the Activity entry in [9] is listed as “Non-toxic”; in data set [10] it was “Toxic”; in [11], “Non-toxic”; in data set [12] it was “Toxic”.

In data set [1], `COc1cc(OC)c(C(=O)OC2CCN(C)CC2)c(OC)c1` registered an ED50 of 11.6 mg/kg.

As to `CN1CC[C@]23c4c5ccc(O)c4O[C@H]2[C@@H](O)C=C[C@H]3[C@H]1C5` [MORPHINE], the ED50 in data set [1] was found to be 1.2 mg/kg; in data set [13], 0.8 mg/kg.

Take `Cc1cc(C)c(C(=O)OC2CCN(C)CC2)c(C)c1`: the ED50 in [1] was 8.3 mg/kg; in data set [13], 46 mg/kg.

On to `COc1ccccc1C(=O)OC1CCN(C)CC1`, for which the 50% effect level in data set [1] (ED50) was put at a dose of 10.6 mg/kg.

With `CN1CCC(OC(=O)c2ccccc2F)CC1`, in [1], the 50% effect level (ED50) was put at a dose of 10.6 mg/kg.

For `COc1cccc(C(=O)OC2CCN(C)CC2)c1`, the ED50 in data set [1] came to 6.1 mg/kg. Besides, the Activity result in data set [5] and in data set [9] was “Non-toxic” in each case.

Molecule `Cc1cccc(C)c1C(=O)OC1CCN(C)CC1` gave an ED50 in [1] of 15.2 mg/kg.

Turning to `Cc1ccc(C(=O)OC2CCN(C)CC2)cc1C`, the “Analgesic activity (active/inactive)” value in data set [14] was “Active”.

As for `COc1ccc(C(=O)O[C@H]2CCN(C)C[C@H]2C)cc1OC` (relative stereo), the K in data set [15] was above 100 µM. The “Analgesic activity (active/inactive)” value in data set [14] was “Active”.

In the case of `CCOC(=O)[C@@H]1CN(C)CC[C@@H]1OC(=O)c1ccc(OC)c(OC)c1` (relative stereo), in data set [16], the Activity result is “Toxic”. In data set [1], this molecule gave an ED50 of 4 mg/kg. Moreover, the ED50 result in data set [17] is “Active”.

In data set [1], `CN1CCC(OC(=O)c2cccc(O)c2)CC1` returned an ED50 of 16.6 mg/kg.

`COc1cc(C(=O)OC2CCN(C)CC2)cc(OC)c1OC` registered an ED50 in [1] of 15.4 mg/kg.

Turning to `COc1cccc(OC)c1C(=O)OC1CCN(C)CC1`, the 50% effect level in data set [1] (ED50) was put at a dose of 73.8 mg/kg.

Molecule `Cc1ccc(C(=O)OC2CCN(C)CC2)cc1F` showed an ED50 in [1] of 13.9 mg/kg.

Regarding `COc1ccc(C(=O)O[C@H]2CCN(C)C[C@@H]2C)cc1OC`, the 50% effect level in [1] (ED50) was put at a dose of 8.3 mg/kg. The molecule further registered a K in data set [15] above 100 µM.

In turn, `COc1cc(OC)cc(C(=O)OC2CCN(C)CC2)c1` showed an ED50 in [1] of 9.3 mg/kg.

For `Cc1[nH]c(C)c(C(=O)OC2CCN(C)CC2)c1C`, the ED50 is 4.9 mg/kg in [1] and 7.1 mg/kg in data set [13].

As to `CN1CCC(OC(=O)C23CC4CC(CC(C4)C2)C3)CC1`, in [1], the ED50 came out at 15.9 mg/kg.

Regarding `CN1CCC(OC(=O)c2ccccc2Oc2ccccc2)CC1`, the “Analgesic activity (active/inactive)” value in [14] is “Active”.

The molecule `CN1CCC(OC(=O)c2ccc(C(C)(C)C)cc2)CC1` came in with a 50% effective dose (ED50) in data set [1] of 23.3 mg/kg.

Regarding `COc1ccc2c3c1O[C@H]1[C@@H](O)C=C[C@H]4[C@@H](C2)N(C)CC[C@@]341` [CODEINE], the ED50 in [1] came to 7.5 mg/kg; in data set [13], 4.5 mg/kg.

Consider `CN1CCC(OC(=O)CCCc2ccccc2)CC1`, for which, in data set [1], the ED50 result was “inactive”.

In data set [1], `Cc1cc(C)c(C(=O)OC2CCN(C)CC2)cc1C` had an ED50 of 20 mg/kg.

In the case of `CN1CCC(OC(=O)c2ccc3c(c2)OCO3)CC1`, the ED50 in [1] was determined as 7.3 mg/kg.

Take `CCOc1ccccc1C(=O)OC1CCN(C)CC1`: in data set [14], the “Analgesic activity (active/inactive)” value was “Active”.

With `Cc1ccc(C(=O)OC2CCN(C)CC2)cc1`, in data set [1], the ED50 was determined as 18.2 mg/kg.

In the case of `CN1CCC(OC(=O)c2ccccc2)CC1`, the 50% effect level in data set [1] (ED50) was put at a dose of 9.6 mg/kg.

The molecule `COc1cc(C(=O)OC2CCN(C)CC2)ccc1C` yielded an ED50 in data set [1] of 11.9 mg/kg.

`CN1CCC(OC(=O)/C=C/c2ccccc2)CC1` displayed an ED50 in data set [1] of 16.2 mg/kg.

In [1], `Cc1cc(C)c(C(=O)OC2CCN(CCc3ccccc3)CC2)c(C)c1` gave a median effective dose (ED50) of 37 mg/kg.

For the molecule `CN1CCC(OC(=O)c2cccc(F)c2)CC1`, it took a dose of 15.1 mg/kg to reach the 50% effect level in [1] (ED50).

As to `Cc1ccc(C)c(C(=O)OC2CCN(C)CC2)c1`, the ED50 in [1] was found to be 12.5 mg/kg.

Turning to `COc1ccc(CCC(=O)OC2CCN(C)CC2)cc1OC`, the ED50 turned out to be 30.7 mg/kg in data set [1] and 32 mg/kg in data set [13].

For `COc1cccc(C(=O)OC2CCN(C)CC2)c1OC`, the ED50 stood at 8.9 mg/kg in data set [1] and 19.6 mg/kg in [13].

Usually ED50 stands for the dose that gives a 50% effect, or the effect in half of the subjects.
